Data as given in ChEMBL document CHEMBL1156673, “4-nitroacetophenone-derived thiosemicarbazones and their copper(II) complexes with significant in vitro anti-trypanosomal activity” (Eur J Med Chem, 2008).

Assays:
Trypanosoma cruzi [1] = assay: Antitrypanosomal activity against Trypanosoma cruzi Tulahuen 2 at 25 uM after 5 days; assay type: functional; conditions: Tulahuen 2, 120 h, read-out: GI
Trypanosoma cruzi [2] = assay: Antitrypanosomal activity against Trypanosoma cruzi Tulahuen 2 after 5 days; assay type: functional; conditions: Tulahuen 2, 120 h, read-out: ID50 (the source's name)
[3] = Cytotoxicity against human THP1 cells after 48 hrs; assay type: cell-based; conditions: THP-1 cells, read-out: ID50
[4] = Therapeutic index, ID50 for human THP1 cells to ID50 for Trypanosoma cruzi; assay type: cell-based; conditions: THP-1 cells versus Trypanosoma cruzi, read-out: TI

Row | SMILES | IC50 (Trypanosoma cruzi [2]) | inhibition of growth at 25 µM (Trypanosoma cruzi [1]) | CC50 at 48 h [3] | selectivity ratio [4]
1 | C/C(=N\NC(=S)N1CCCCC1)c1ccc([N+](=O)[O-])cc1 | > 25 µM | 12% | – | –
2 | O=C(Cn1ccnc1[N+](=O)[O-])NCc1ccccc1 [BENZNIDAZOLE] | 7.4 µM | 100% | > 300 µM | > 40
3 | CC1CS(=O)(=O)CCN1/N=C/c1ccc([N+](=O)[O-])o1 (stereo not drawn) [NIFURTIMOX] | 7.7 µM | 100% | > 300 µM | > 38

Continued, in another order:

Row | IC50 (Trypanosoma cruzi [2]) | SMILES | inhibition of growth at 25 µM (Trypanosoma cruzi [1]) | CC50 at 48 h [3] | selectivity ratio [4]
4 | > 25 µM | CNC(=S)N/N=C(\C)c1ccc([N+](=O)[O-])cc1 | 31% | > 400 µM | > 16
5 | 0.28 µM | C/C(=N\NC(=S)N(C)C)c1ccc([N+](=O)[O-])cc1 | 100% | > 400 µM | > 1430
